Measurements from US4419123A, “Herbicidal 4-trifluoromethyl-3'-carbon-substituted-4'-substituted diphenyl ethers” (Rohm and Haas Company, priority 1981, dated 1983).

Experiments:
[1] = Postemergence herbicidal activity (% control) against dicot weeds; conditions: post-emergence, 336 h
[2] = Preemergence herbicidal activity (% control) against dicot weeds; conditions: pre-emergence, 336 h; for activity at 11208.5 g/ha: read-out: Herbicidal activity (% control), preemergence, dicots, 10 lb./A., average, about two weeks after application
[3] = Postemergence herbicidal activity (% control) against monocot weeds; assay type: in vivo; conditions: post-emergence, 336 h, average, about two weeks after application, read-out: Herbicidal activity (% control), postemergence, monocots; for activity at 2241.7 g/ha: 2 lb./A.; for activity at 4483.4 g/ha: 4 lb./A.; for activity at 11208.5 g/ha: 10 lb./A.
Source text: (§1) barnyardgrass (Echinochloa crusgalli) crabgrass (Digitaria spp.) nutsedge (Cyperus esculentus)
(§2) At 2 and 4 pounds per acre:
(§3) **Bermudagrass (Cynodon dactylon)
(§4) *downy brome (Bromus tectorum) foxtail (Setaria faberii)
(§5) Johnsongrass (Sorghum halepense) […]
(§6) quackgrass (Agropyron repens)
(§7) *ryegrass (Lolium perenne)
(§8) *wild oats (Avena factua)
(§9) *yellow millet (Panicum miliaceum)
(§10) The following test procedure is employed.

[4] = Preemergence herbicidal activity (% control) against monocot weeds; assay type: in vivo; conditions: pre-emergence, 336 h, average, about two weeks after application, read-out: Herbicidal activity (% control), preemergence, monocots; for activity at 2241.7 g/ha: 2 lb./A.; for activity at 4483.4 g/ha: 4 lb./A.; for activity at 11208.5 g/ha: 10 lb./A.
Source text: as §1, §2, §3, §4, §5, §6, §7, §8, §9, §10

[5] = read-out: Herbicidal activity (% control), postemergence, dicots, 2 lb./A., average, about two weeks after application
[6] = read-out: Herbicidal activity (% control), postemergence, dicots, 4 lb./A., average, about two weeks after application
[7] = read-out: Herbicidal activity (% control), preemergence, dicots, 2 lb./A., average, about two weeks after application
[8] = read-out: Herbicidal activity (% control), preemergence, dicots, 4 lb./A., average, about two weeks after application
[9] = read-out: Herbicidal activity (% control), postemergence, dicots
[10] = read-out: Herbicidal activity (% control), preemergence, dicots

| Compound | activity at 2241.7 g/ha [1, 5] | activity at 4483.4 g/ha [1, 6] | activity at 2241.7 g/ha [2, 7] | activity at 4483.4 g/ha [2, 8] | activity at 2241.7 g/ha [3] | activity at 4483.4 g/ha [3] | activity at 2241.7 g/ha [4] | activity at 4483.4 g/ha [4] | activity at 2241.7 g/ha [1, 9] | activity at 4483.4 g/ha [1, 9] | activity at 2241.7 g/ha [2, 10] | activity at 4483.4 g/ha [2, 10] | activity at 11208.5 g/ha [2] | activity at 11208.5 g/ha [3] | activity at 11208.5 g/ha [4] | activity at 11208.5 g/ha ([1]; read-out: Herbicidal activity (% control), postemergence, dicots, 10 lb./A., average, about two weeks after application) |
| --- | --- | --- | --- | --- | --- | --- | --- | --- | --- | --- | --- | --- | --- | --- | --- | --- |
| CC#CCCOc1cc(Oc2ccc(C(F)(F)F)cc2Cl)ccc1[N+](=O)[O-] [Example 14] | 100% | 94% | 22% | 78% | 91% | 61% | 30% | 64% | – | – | – | – | – | – | – | – |
| CNC(=O)Oc1cc(Oc2ccc(C(F)(F)F)cc2Cl)ccc1[N+](=O)[O-] [Example 33] | – | – | – | – | 65% | 32% | 79% | 53% | 100% | 98% | 74% | 99% | – | – | – | – |
| CN(CCO)c1cc(Oc2ccc(C(F)(F)F)cc2Cl)ccc1[N+](=O)[O-] [Example 43] | 80% | 47% | 100% | 48% | 61% | 2% | 99% | 0% | – | – | – | – | – | – | – | – |
| CN(C)CCOc1cc(Oc2ccc(C(F)(F)F)cc2Cl)ccc1[N+](=O)[O-] [Example 17, 2-chloro-α,α,α-trifluoro-p-tolyl-3-(2-dimethylaminoethoxy)-4-nitrophenyl ether] | 98% | 89% | 31% | 84% | 39% | 45% | 20% | 51% | – | – | – | – | – | – | – | – |
| COc1cc(Oc2ccc(C(F)(F)F)cc2Cl)ccc1[N+](=O)[O-] [Example 2] | – | 100% | – | 80% | – | 99% | – | 97% | – | – | – | – | 100% | 100% | 97% | – |
| CC(Oc1cc(Oc2ccc(C(F)(F)F)cc2Cl)ccc1[N+](=O)[O-])C(N)=O (stereo not drawn) [Example 51, 2-chloro-α,α,α-trifluoro-p-tolyl-3-(1-carbamoylethoxy)-4-nitrophenyl ether] | 98% | 100% | 100% | 100% | 86% | 75% | 96% | 79% | – | – | – | – | – | – | – | – |
| O=[N+]([O-])c1ccc(Oc2ccc(C(F)(F)F)cc2Cl)cc1OCCO [Example 15, 2-chloro-α,α,α-trifluoro-p-tolyl-3-(2-hydroxyethoxy)-4-nitrophenyl ether] | 94% | 99% | 90% | 100% | 76% | 79% | 68% | 99% | – | – | – | – | – | – | – | – |
| O=[N+]([O-])c1ccc(Oc2ccc(C(F)(F)F)cc2Cl)cc1NCCO [Example 22] | 100% | 99% | 77% | 98% | 70% | 60% | 63% | 72% | – | – | – | – | – | – | – | – |
| CCCCOc1cc(Oc2ccc(C(F)(F)F)cc2Cl)ccc1[N+](=O)[O-] [Example 6] | – | 94% | – | 55% | – | 91% | – | 77% | – | – | – | – | 70% | 97% | 65% | 100% |
| CCOc1cc(Oc2ccc(C(F)(F)F)cc2C#N)ccc1[N+](=O)[O-] [Example 7, 2-Cyano-α,α,α-trifluoro-p-tolyl-3-ethoxy-4-nitrophenyl ether] | 80% | 77% | 54% | 57% | 82% | 75% | 65% | 65% | – | – | – | – | 60% | 100% | 61% | – |
| N#Cc1cc(Oc2ccc(C(F)(F)F)cc2Cl)ccc1[N+](=O)[O-] [Example 47, 2-Chloro-α,α,α-trifluoro-p-tolyl-3-cyano-4-nitrophenyle ther] | 84% | 72% | – | 40% | 24% | 11% | 80% | 61% | – | – | – | – | – | – | – | – |
